Results from patent publication US8546377B2 (AbbVie Inc., priority 2009, dated 2013).
Like-named read-outs stand apart in the source and are kept apart here.

Columns and labels:
5HT2C receptors = biological target: T1, 5HT2C receptors (Homo sapiens, UniProt P28335); assay: Human 5-HT2C functional assay in CHO-K1 cells (calcium flux, FLIPR); assay type: cell-based; design: expressed in transfected cells; host or cells: CHO-K1 cells; conditions: for Emax: percentage relative to the effect of serotonin
T1 sequence (P28335 33-458): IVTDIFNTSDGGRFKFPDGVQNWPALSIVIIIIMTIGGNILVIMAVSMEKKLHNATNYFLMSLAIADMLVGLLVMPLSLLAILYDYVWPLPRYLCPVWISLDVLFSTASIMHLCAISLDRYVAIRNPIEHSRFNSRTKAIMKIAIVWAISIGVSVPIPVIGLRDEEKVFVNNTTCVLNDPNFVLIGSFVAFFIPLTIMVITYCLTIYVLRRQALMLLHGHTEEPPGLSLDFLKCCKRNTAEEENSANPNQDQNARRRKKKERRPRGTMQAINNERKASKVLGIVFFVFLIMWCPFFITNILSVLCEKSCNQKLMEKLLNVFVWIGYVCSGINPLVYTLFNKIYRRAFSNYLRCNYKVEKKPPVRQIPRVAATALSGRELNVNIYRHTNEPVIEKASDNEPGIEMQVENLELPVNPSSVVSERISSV
Protocol: (§1) (iii) Human 5-HT2C and 5-HT2B Functional Assay in CHO-K1 Cells
(§2) CHO-K1 cells over-expressing 5HT2C or 5HT2B receptors were grown in 1272 cm^2 flasks to 70-80% confluency in UltraCHO media supplemented with 1% dialyzed fetal bovine serum (FBS), 250 μg/mL zeocin, 100 U/mL penicillin/streptomycin, and 400 μg/mL geneticin. The cells were dissociated from the flasks using 0.05% trypsin, resuspended in freezing media and stored in liquid nitrogen until use. Calcium flux experiments were done using frozen cells. The cells were diluted in media containing 1% dialyzed FBS and 100 U/mL penicillin/streptomycin and plated into 384-well poly-D-Lysine coated plates (15,000 cells/well). Then the plates were incubated overnight in a cell incubator at 37° C., 5% CO2. On the next day, the growth media was replaced with media without FBS and further incubated overnight. On day three, the changes in intracellular Ca^2+ were determined using calcium sensitive fluorescent dye, Ca4 (MDS Analytical Technologies, Sunnyvale, Calif.) by loading 15 μL of diluted dye with 2.5 mM probenecid into the cells containing media and incubated at room temperature for 60 minutes in dark.
(§3) Fluorescence measurements were read at 25° C. at an excitation wavelength of 480 nm and an emission wavelength of 530 nm in FLIPR (MDS). Baseline fluorescence was measured for the first 10 seconds and then 15 μL of 4× concentrations of serotonin/test compounds was added to the cell plate. The fluorescence intensity was captured every second for the first 1 minute followed by every 5 seconds for an additional 2 minutes. The increase in fluorescent response was determined and was normalized to the response of serotonin. The concentration response of compounds was done from a starting concentration of 10 μM, 1:10 dilution across 6 wells with a final dimethyl sulfoxide concentration of 0.2% and was fitted using a 4-parameter logistic equation. The concentration at which a compound exerts half its maximal effect was named as ‘effective concentration 50’ or ‘EC50’.
(§4) Emax is the maximum functional response or efficacy expressed as a percentage relative to the effect of serotonin.

5HT2B receptors = biological target: T2, 5HT2B receptors (Homo sapiens, UniProt P41595); assay: Human 5-HT2B functional assay in CHO-K1 cells (calcium flux, FLIPR); assay type: cell-based
T2 construct: expressed in transfected cells; host or cells: CHO-K1 cells
T2 sequence (P41595 whole entry): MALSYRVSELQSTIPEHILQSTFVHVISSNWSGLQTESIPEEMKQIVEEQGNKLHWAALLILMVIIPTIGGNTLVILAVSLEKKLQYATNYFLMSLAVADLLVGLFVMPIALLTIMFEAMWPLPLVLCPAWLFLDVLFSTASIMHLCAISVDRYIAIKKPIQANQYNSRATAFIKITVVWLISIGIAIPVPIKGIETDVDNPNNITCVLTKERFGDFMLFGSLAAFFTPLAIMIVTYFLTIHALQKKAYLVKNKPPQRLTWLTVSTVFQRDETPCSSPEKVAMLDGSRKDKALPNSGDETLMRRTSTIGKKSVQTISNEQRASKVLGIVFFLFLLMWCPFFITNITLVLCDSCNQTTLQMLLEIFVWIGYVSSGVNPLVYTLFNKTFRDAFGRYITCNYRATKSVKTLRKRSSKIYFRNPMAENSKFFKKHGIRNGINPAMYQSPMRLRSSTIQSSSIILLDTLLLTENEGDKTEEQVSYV
Protocol: as §1, §2, §3, §4

[1] = CHO-K1 cells over-expressing 5HT2C, calcium flux, read-out: EC50 (μM), 5-HT2c Agonist Activity
[2] = CHO-K1 cells, read-out: Emax (%), 5-HT2c Agonist Activity
[3] = CHO-K1 cells over-expressing 5HT2B, calcium flux, read-out: EC50 (μM), 5-HT2B Agonist Activity
[4] = CHO-K1, read-out: Emax (%), 5-HT2c Agonist Activity, CHO-K1 cells
[5] = CHO-K1, read-out: Emax (%), 5-HT2B Agonist Activity
[6] = CHO-K1 cells, percentage relative to the effect of serotonin, read-out: Emax (%), 5-HT2B Agonist Activity

Structure (SMILES)	EC50 (5HT2C receptors; [1])	Emax (5HT2C receptors; [2])	EC50 (5HT2B receptors; [3])	Emax (5HT2B receptors; [6])	EC50 (5HT2C receptors)	Emax (5HT2C receptors; [4])	EC50 (5HT2B receptors)	Emax (5HT2B receptors; [5])
c1ccc2c(c1)OCC[C@@H]1CNCCN21 [Example 255, (4aR)-2,3,4,4a,5,6-hexahydro-1H-pyrazino[2,1-d][1,5]benzoxazepine]	–	–	–	–	0.001 µM	95%	0.09 µM	70%
COc1cccc(-c2ccc3c(c2)N2CCNC[C@@H]2CCO3)c1 [Example 193, (4aS)-10-(3-methoxyphenyl)-2,3,4,4a,5,6-hexahydro-1H-pyrazino[2,1-d][1,5]benzoxazepine]	0.008 µM	> 120%	1 µM	25%	–	–	–	–
[2H]c1cccc2c1OCC[C@H]1CNCCN21 [Example 254, (4aS)-(8-^2H)-2,3,4,4a,5,6-hexahydro-1H-pyrazino[2,1-d][1,5]benzoxazepine]	–	–	–	–	0.005 µM	115%	0.09 µM	35%
c1cc(-c2ccc3c(c2)N2CCNC[C@@H]2CCO3)ccn1 [Example 207, (4aS)-10-(pyridin-4-yl)-2,3,4,4a,5,6-hexahydro-1H-pyrazino[2,1-d][1,5]benzoxazepine]	0.8 µM	–	> 10 µM	–	–	> 120%	–	–
COc1cccc2c1OCC[C@H]1CNCCN21 [Example 241, (4aS)-8-methoxy-2,3,4,4a,5,6-hexahydro-1H-pyrazino[2,1-d][1,5]benzoxazepine]	–	–	–	–	0.02 µM	90%	> 10 µM	–
O=C1CC2CNCCN2c2cc(COc3ccccc3F)ccc2N1 (centres unmarked) [Example 113, 10-[(2-fluorophenoxy)methyl]-1,2,3,4,4a,5-hexahydropyrazino[1,2-a][1,5]-benzodiazepin-6(7H)-one]	0.05 µM	> 120%	0.2 µM	50%	–	–	–	–
O=C1C[C@H]2CNCCN2c2cccc(F)c2N1 [Example 85, (4aS)-8-fluoro-1,2,3,4,4a,5-hexahydropyrazino[1,2-a][1,5]benzodiazepin-6(7H)-one]	–	–	–	–	0.0051 µM	> 120%	> 10 µM	–
CN1CCN2c3cc(Cl)ccc3OCC[C@H]2C1 [Example 188, (4aS)-10-chloro-3-methyl-2,3,4,4a,5,6-hexahydro-1H-pyrazino[2,1-d][1,5]benzoxazepine]	–	–	–	–	0.01 µM	70%	> 10 µM	–
O=C1CC2CNCCN2c2cc(COc3ccccc3)ccc2N1 (centres unmarked) [Example 111, 10-(phenoxymethyl)-1,2,3,4,4a,5-hexahydropyrazino[1,2-a][1,5]benzodiazepin-6(7H)-one]	0.02 µM	> 120%	0.7 µM	20%	–	–	–	–
FC(F)(F)c1ccc2c(c1)N1CCNC[C@@H]1CCO2 [Example 217, (4aS)-10-(trifluoromethyl)-2,3,4,4a,5,6-hexahydro-1H-pyrazino[2,1-d][1,5]benzoxazepine]	0.01 µM	100%	0.09 µM	70%	–	–	–	–
CCN1C(=O)CC2CN(C)CCN2c2ccc(Cl)cc21 (centres unmarked) [Example 78, 9-chloro-7-ethyl-3-methyl-1,2,3,4,4a,5-hexahydropyrazino[1,2-a][1,5]benzodiazepin-6(7H)-one]	1 µM	50%	> 10 µM	–	–	–	–	–
CCC(C)Oc1ccc2c(c1)N1CCNC[C@@H]1CC(=O)N2 (stereo partly drawn) [Example 174, (4aS)-10-sec-butoxy-1,2,3,4,4a,5-hexahydropyrazino[1,2-a][1,5]benzodiazepin-6(7H)-one]	0.007 µM	> 120%	> 10 µM	–	–	–	–	–
C[C@H](Oc1ccc2c(c1)N1CCNCC1CC(=O)N2)c1ccccc1 (stereo partly drawn) [Example 154, 10-[(1S)-1-phenylethoxy]-1,2,3,4,4a,5-hexahydropyrazino[1,2-a][1,5]benzodiazepin-6(7H)-one]	0.103 µM	> 120%	0.7 µM	44%	–	–	–	–
C[C@@H]1C[C@H]2CNCCN2c2ccccc2O1 (single isomer, unassigned) [Example 252]	–	–	–	–	0.006 µM	105%	0.06 µM	40%
c1coc(-c2cccc3c2OCC[C@H]2CNCCN32)c1 [Example 251, (4aS)-8-(2-furyl)-2,3,4,4a,5,6-hexahydro-1H-pyrazino[2,1-d][1,5]benzoxazepine]	0.0001 µM	90%	> 10 µM	–	–	–	–	–
[2H]c1cc2c(cc1[2H])N1CCNC[C@@H]1CCO2 [Example 267, (4aS)-(9,10-^2H2)-2,3,4,4a,5,6-hexahydro-1H-pyrazino[2,1-d][1,5]benzoxazepine]	–	–	–	–	0.005 µM	90%	0.2 µM	20%

More lines, main results first:

EC50 (5HT2C receptors; [1])	Emax (5HT2C receptors; [2])	EC50 (5HT2B receptors; [3])	Emax (5HT2B receptors; [6])	Structure (SMILES)	EC50 (5HT2C receptors)	Emax (5HT2C receptors; [4])	EC50 (5HT2B receptors)	Emax (5HT2B receptors; [5])
0.2 µM	> 120%	> 10 µM	–	Oc1cccc(-c2ccc3c(c2)N2CCNC[C@@H]2CCO3)c1 [Example 201, 3-[(4aS)-2,3,4,4a,5,6-hexahydro-1H-pyrazino[2,1-d][1,5]benzoxazepin-10-yl]phenol]	–	–	–	–
0.2 µM	110%	> 10 µM	–	O=C1CC2CNCCN2c2cc(-c3cccc4ccccc34)ccc2N1 (centres unmarked) [Example 67, 10-(1-naphthyl)-1,2,3,4,4a,5-hexahydropyrazino[1,2-a][1,5]benzodiazepin-6(7H)-one]	–	–	–	–
0.09 µM	> 120%	> 10 µM	–	O=C1CC2CNCCN2c2cc(-c3cccc4[nH]ccc34)ccc2N1 (centres unmarked) [Example 68, 10-(1H-indol-4-yl)-1,2,3,4,4a,5-hexahydropyrazino[1,2-a][1,5]benzodiazepin-6(7H)-one]	–	–	–	–
0.06 µM	> 120%	0.9 µM	60%	O=C1CC2CNCCN2c2cc(-c3cnc4ccccc4c3)ccc2N1 (centres unmarked) [Example 62, 10-(quinolin-3-yl)-1,2,3,4,4a,5-hexahydropyrazino[1,2-a][1,5]benzodiazepin-6(7H)-one]	–	–	–	–
0.002 µM	> 120%	> 10 µM	50%	O=C1CC2CNCCN2c2cc(CCc3ccccc3F)ccc2N1 (centres unmarked) [Example 144, 10-[2-(2-fluorophenyl)ethyl]-1,2,3,4,4a,5-hexahydropyrazino[1,2-a][1,5]benzodiazepin-6(7H)-one]	–	–	–	–
0.05 µM	> 120%	> 10 µM	–	COc1cccc(-c2ccc3c(c2)N2CCNCC2CC(=O)N3)c1 (centres unmarked) [Example 65, 10-(3-methoxyphenyl)-1,2,3,4,4a,5-hexahydropyrazino[1,2-a][1,5]benzodiazepin-6(7H)-one]	–	–	–	–
0.01 µM	> 120%	> 10 µM	–	C1=C(c2ccc3c(c2)N2CCNC[C@@H]2CCO3)CCCC1 [Example 209, (4aS)-10-(cyclohex-1-en-1-yl)-2,3,4,4a,5,6-hexahydro-1H-pyrazino[2,1-d][1,5]benzoxazepine]	–	–	–	–
1 µM	110%	> 10 µM	–	C[C@@H](Cc1ccccc1)Oc1ccc2c(c1)N1CCNC[C@H]1CC(=O)N2 [Example 167, (4aR)-10-{[(2S)-1-phenylpropan-2-yl]oxy}-1,2,3,4,4a,5-hexahydropyrazino[1,2-a][1,5]benzodiazepin-6(7H)-one]	–	–	–	–
0.003 µM	110%	> 10 µM	–	FC(F)(F)c1cccc2c1OCC[C@H]1CNCCN21 [Example 215, (4aS)-8-(trifluoromethyl)-2,3,4,4a,5,6-hexahydro-1H-pyrazino[2,1-d][1,5]benzoxazepine]	–	–	–	–
0.007 µM	> 120%	> 10 µM	–	O=C1CC2CNCCN2c2cc(-c3cccc(OC(F)(F)F)c3)ccc2N1 (centres unmarked) [Example 93, 10-[3-(trifluoromethoxy)phenyl]-1,2,3,4,4a,5-hexahydropyrazino[1,2-a][1,5]benzodiazepin-6(7H)-one]	–	–	–	–
